Assay results taken from patent publication US8143254B2, “Methods for modulating ion channels” (Cornell Research Foundation, Inc., priority 2005, dated 2012).

What was measured:
Kv3.4 = molecular target: T1, Kv3.4 (UniProt Q63734); experiment: TEVC of X. laevis oocytes expressing Kv3.4; format: cell-based; conditions: 1 mM, bath applied
T1 construct: IC50; other: Kv3.4, logistic dose response fit; effect on Kv3.4 currents; other: 1 mM, bath applied; slope of dose response curve; other: Kv3.4
T1 sequence (Q63734 1-625): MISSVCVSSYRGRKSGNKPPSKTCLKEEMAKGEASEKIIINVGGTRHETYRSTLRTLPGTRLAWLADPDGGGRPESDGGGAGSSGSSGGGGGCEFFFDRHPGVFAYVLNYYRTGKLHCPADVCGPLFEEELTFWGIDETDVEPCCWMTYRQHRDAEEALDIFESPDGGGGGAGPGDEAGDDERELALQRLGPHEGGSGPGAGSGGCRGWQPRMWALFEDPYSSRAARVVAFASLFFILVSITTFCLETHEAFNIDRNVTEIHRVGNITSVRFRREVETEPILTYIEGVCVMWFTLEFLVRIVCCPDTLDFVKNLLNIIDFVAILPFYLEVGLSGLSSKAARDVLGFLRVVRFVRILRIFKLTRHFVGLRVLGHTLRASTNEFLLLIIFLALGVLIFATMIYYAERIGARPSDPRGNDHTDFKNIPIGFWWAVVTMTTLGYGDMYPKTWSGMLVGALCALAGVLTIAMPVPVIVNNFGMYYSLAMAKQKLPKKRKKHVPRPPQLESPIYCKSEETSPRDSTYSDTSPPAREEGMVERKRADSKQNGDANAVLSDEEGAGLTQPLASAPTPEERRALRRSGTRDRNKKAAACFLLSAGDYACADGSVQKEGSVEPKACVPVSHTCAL
From the text: Kv2.1 mutants were constructed using the QuickChange Multi Site-Directed Mutagenesis Kit (Stratagene, La Jolla, Calif.). […] For oocyte expression, Kv3.4 was in pBF1, Kv4.2 was in pRAT. cRNA transcripts were produced from SacII-linearized (Kv2.1), Mlullinearized (Kv3.4) and Not1-linearized (Kv4.2) DNA templates using the T3 (Kv2.1), SP6 (Kv3.4) and T7 (Kv4.2) mMessage mMachine kits (Ambion, Austin, Tex.). cRNA was quantified by spectrophotometry and its size integrity verified by gel electophoresis. Defolliculated stage V and VI Xenopus laevis oocytes (purchased from Nasco, Grand Island, N.Y.) were injected with 5 ng of cRNA encoding Kv2.1, Kv3.4 or Kv4.2. Chinese Hamster Ovary (CHO) cells were transfected with 0.25 μg Kv2.1 cDNA, 2 μg blank plasmid and 2 μg Green fluorescent Protein in pBOB using Supetfect transfection reagent (Qiagen) 24 hours before whole-cell voltage clamp studies.
Oocytes were bathed in a small-volume Warner oocyte bath and viewed with a Fisher dissection microscope. Bath solution for whole-cell oocyte recordings was (in mM): 96 NaCl, 4 KCl, 0.7 MgCl2, 1 CaCl2, 10 HEPES (pH 7.4); whole-cell oocyte TEVC pipettes were of 0.2-2 M resistance when filled with 3 M KCl. Experiments were performed 24-48 hours after cRNA injection. For assessment of current-voltage relationships in the absence or presence of dabco derivatives, oocytes were held at −80 mV, stepped for 2 seconds at voltages between −80 mV and +60 mV in 20 mV steps (Kv2.1) or between −80 and +50 mV in 10 mV steps (Kv3.4), then held for 500 ms at −40 mV before returning to the holding potential. For assessment of block during wash-in of dabco derivatives at a single voltage, oocytes were held at −80 mV, and repetitively stepped to 0 mV for 2 s with an interpulse interval of 10 s or 60 s as indicated. A range of concentrations of dabco or dabco derivatives were washed in via the bath solution during repetitive single-voltage pulses (after an initial period of 5 pulses with control solution to ensure current stabilization) until equilibrium block was achieved, to establish dose-responses. […] Washout was performed after the highest concentration of blocker was washed in. In cases where washout was achieved, only those recordings in which current returned to within 10% of original current level were used for construction of dose-response curves. […] As controls for this protection analysis, JC638.2a or MTSET were washed in alone until equilibrium block, then washed out.
Data analysis: Current-voltage relationships were obtained by measuring peak current during depolarizing pulses. Inhibition constants for DABCO blockers were calculated after generating a dose response curve by fitting with a logistic dose-response function y=A2+[A1−A2/1+(x/x0)^p], where A1 is the maximum response plateau, A2 is the minimum response plateau, x is drug concentrator, x0 is the IC50, and p the Hill slope. Data analysis was performed using […] 9 (Axon Instruments, Foster City, Calif.) and tabulated in Excel 5.0. Graphs were generated using Origin 6.1. Data are expressed as mean±SEM, with n specifying the number of independent experiments. Statistical significance was assessed by one-way ANOVA with p<0.05 being indicative of significance.

Kv2.1 = molecular target: T2, Kv2.1 (Rattus norvegicus, UniProt P15387); experiment: Two-electrode voltage clamp (TEVC) of Xenopus oocytes expressing Kv2.1, bath-applied compound; format: cell-based; conditions: for effect on Kv2.1 currents: 1 mM, bath applied
T2 construct: expressed in transfected cells; host or cells: Xenopus laevis oocytes (cRNA injection, pGA1 vector)
From the text: The ion channel subunit genes are in expression vectors that facilitate in vitro transcription of channel cRNA using the Ambion mMessage mMachine in vitro transcription kit. cDNA constructs are column-purified, linearized with the appropriate restriction enzyme that cuts a single site following the polyA tail, then purified by precipitation and transcribed in vitro using a promoter, such as T7, T3 and SP6. Transcribed cRNA is purified by precipitation and resuspended in RNAse-free water ready for injection. Each transcription can provide enough cRNA for several months of experiments.
Stage V-VI Xenopus oocytes are separated into small groups using forceps, defolliculated by agitation in Ca^2+-free Ringer solution containing collagenase for one hour, washed, then stored at 15° C. in full Ringers solution before injection. cRNA sufficient to give 1-10 μA of current at physiological voltages for each channel type is injected into Xenopus oocytes (selected by appearance for overall health and uniformity of color) using a Sutter manual injector (typically 0.1-5 ng cRNA in a volume of 25-50 nl). The oocytes are then stored for 1-3 days at 15° C. before TEVC recording. Beta subunit cRNA is co-injected as appropriate, typically 2 ng per oocyte.
Whole cell oocyte experiments are performed using a Warner OC-725C amplifier and pClamp9 software with oocytes bathed in a small-volume Warner oocyte bath and viewed with a Fisher dissection microscope. Bath solution for whole cell oocyte recordings, e.g., for potassium channel analysis, is generally (in mM): 96 NaCl, 4 KCl, 1 MgCl2, 0.3 CaCl2, 10 HEPES (Ph 7.4); whole-cell oocyte TEVC pipettes are filled with 3 M KCl. Oocyte patches are studies using an Axon Instruments small-volume bath, viewed with an Olympus IX50 inverted microscope, and recordings made using an Axon Multiclamp 700 A Amplifier and pCLAMP9 software (Axon Instruments). Extracellular solution, e.g., for potassium channel analysis, is generally (in mM): 135 NaCl, 5 KCl, 1.2 MgCl2, 5 HEPES, 2.5 CaCl2, 10 D-glucose (Ph 7.4). Intracellular solution, e.g., for potassium channel analysis, is generally (in mM): 10 NaCl, 117 KCl, 2 MgCl2, 11 HEPES, 11 EGTA, ICaCl2 (Ph 7.2). Patch pipettes are approximately 3-5 MΩ resistance when filled with recording solution.
Quantitative aspects of ion action on ion channels are compared using standard pulse protocols. Pulse times and voltages will vary according to which currents are being studied. […] Drug inhibition constants are calculated after generating a dose response curve by fitting with a logistic dose-response function (see equation (i) below). Typically, 5-20 cells per group are recorded from for heterologous expression experiments. Values are to be stated as mean±SEM with statistical significance set at p<0.05 (unpaired students t-test, ANOVA or the Mann-Whitney Rank Sum Test as appropriate).
Injected oocytes, bathed in bath solution containing 4 mM KCl, unless otherwise stated, are impaled with current and voltage electrodes and clamped at −80 mV holding potential using a Warner OC-725C amplifier. […] Drug concentrations are chosen to ensure inhibition values between 0 and 90-100% with at least 3 values within the linear portion of the curve so that the inhibition constant (Ki) can be calculated accurately by fitting with a logistic dose-response function (formula (i)) using the Origin 6.1 graph package.
Kv2.1 mutants were constructed using the QuickChange Multi Site-Directed Mutagenesis Kit (Stratagene, La Jolla, Calif.). […] For oocyte expression, Kv3.4 was in pBF1, Kv4.2 was in pRAT. cRNA transcripts were produced from SacII-linearized (Kv2.1), Mlullinearized (Kv3.4) and Not1-linearized (Kv4.2) DNA templates using the T3 (Kv2.1), SP6 (Kv3.4) and T7 (Kv4.2) mMessage mMachine kits (Ambion, Austin, Tex.). cRNA was quantified by spectrophotometry and its size integrity verified by gel electophoresis.

T2 sequence (P15387 whole entry): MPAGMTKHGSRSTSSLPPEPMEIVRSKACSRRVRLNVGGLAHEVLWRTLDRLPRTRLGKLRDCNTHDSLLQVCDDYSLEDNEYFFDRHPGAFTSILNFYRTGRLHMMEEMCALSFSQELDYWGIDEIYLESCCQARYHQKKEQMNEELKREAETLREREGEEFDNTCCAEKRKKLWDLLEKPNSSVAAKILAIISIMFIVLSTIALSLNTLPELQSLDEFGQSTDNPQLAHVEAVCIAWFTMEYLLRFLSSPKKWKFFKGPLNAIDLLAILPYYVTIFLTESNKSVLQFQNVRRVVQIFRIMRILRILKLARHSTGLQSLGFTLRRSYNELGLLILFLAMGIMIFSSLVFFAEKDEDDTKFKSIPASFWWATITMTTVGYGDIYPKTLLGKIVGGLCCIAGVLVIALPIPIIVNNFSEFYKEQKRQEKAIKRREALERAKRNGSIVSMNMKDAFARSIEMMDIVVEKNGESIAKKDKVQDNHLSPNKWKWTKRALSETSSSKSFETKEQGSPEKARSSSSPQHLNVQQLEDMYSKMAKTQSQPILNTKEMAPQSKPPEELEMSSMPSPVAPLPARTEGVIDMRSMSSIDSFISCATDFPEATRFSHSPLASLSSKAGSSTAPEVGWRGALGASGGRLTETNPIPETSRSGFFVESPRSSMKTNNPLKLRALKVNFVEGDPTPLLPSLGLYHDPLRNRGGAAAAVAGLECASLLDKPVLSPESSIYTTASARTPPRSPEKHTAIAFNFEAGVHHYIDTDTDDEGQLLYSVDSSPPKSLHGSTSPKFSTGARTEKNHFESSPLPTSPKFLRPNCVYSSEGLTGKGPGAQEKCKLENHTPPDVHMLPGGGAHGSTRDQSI

Compound	effect on Kv3.4 currents (Kv3.4)	effect on Kv2.1 currents (Kv2.1)	effect on Kv2.1 current during wash-in (Kv2.1; 250 μM TG28, 0 mV)	Kv2.1 current level after washout relative to pre-drug current (Kv2.1; 250 μM TG28 washed out, on average)
C1CN2CCN1CC2 [DABCO, 1,4-diazabicyclo[2.2.2]octane, reference compound]	no effects	no effects		
C(CCCCCC[N+]12CCN(CC1)CC2)CCCCC[N+]12CCN(CC1)CC2 [TG28, 1,12-[bis(4-aza-1-azoniabicyclo[2.2.2]octanyl)]dodecane]		block	rapid reduction of current (block) followed by slow, partial restoration of current (partial opening)	two-fold larger than the pre-drug current
